Test results from publication PMC9511493, “2-(Fluoromethoxy)-4′-(S-methanesulfonimidoyl)-1,1′-biphenyl (UCM-1306), an Orally Bioavailable Positive Allosteric Modulator of the Human Dopamine D1 Receptor for Parkinson’s Disease” (Journal of Medicinal Chemistry, 2022).
Several values for one entry are separate records, joined by “and”; a condition that tells them apart may be missing. Equal entries are not always repeated.

How the values were obtained:
[1] = parallel artificial membrane permeability assay (PAMPA); format: in vitro ADME; conditions: read-out: P
Experimental: Parallel artificial membrane permeability assay (PAMPA). The assessment of the membrane permeability of selected compounds and reference compounds propranolol and metoprolol was performed in a commercially available 96-well Corning Gentest pre-coated PAMPA plate system (Cultek S.L.U., Spain). Prior to use, the pre-coated PAMPA plate system was warmed to rt for 30 min and 300 μL of 200 μM solution of tested compound in 2% DMSO in PBS were added to the wells in the receiver (donor) plate.
Then, 200 μL of PBS were added to the wells in the filter (acceptor) plate. The filter plate was placed on the receiver plate by slowly lowering the pre-coated PAMPA plate until it sits on the receiver plate. […] The final concentrations of compound in both donor and acceptor wells were analyzed by HPLC-MS using SIM mode, and quantification was estimated by using the peak area integration normalized with an internal standard. Permeability value of the compounds was calculated using the following formula: P (cm/s) = {-ln[1-CA(t)/Ceq]}/[A*(1/VD+1/VA)*t], where A = filter area (0.3 cm2), VD = donor well volume (0.3 mL), VA = acceptor well volume (0.2 mL), t = incubation time (s), CA(t) = compound concentration (μM) in acceptor well at time t, CD(t) = compound concentration (μM) in donor well at time t, and Ceq = […]

[2] = target: T1, human dopamine D1R (Homo sapiens, UniProt P21728); assay: radioligand binding assay with [3H]SCH23390 at human D1R membranes
T1 construct: purchased Perkin Elmer
Experimental: Binding assays were carried out by using plasma membranes (12 μg/well) expressing human dopamine D1R (Perkin Elmer). […] After this time, the well content was filtered through a Millipore manifold and membranes were washed four times with assay buffer. The plate was dried and radioactivity was measured in a Microbeta Trilux liquid scintillation reader (Perkin Elmer). Non-specific binding was determined in the presence of 1 μM (+)-butaclamol. Data were normalized to the percentage of specific binding and fitted to a 4-parameter logistic equation using with Prism v2.1 software (GraphPad Inc). For the calculation of the affinity ratio of DA in the presence of the allosteric modulators, data were fitted according to the equations reported by Lazareno and Birdsall.[44]

[3] = target: T2, hERG potassium channel (Homo sapiens, UniProt Q12809); assay: hERG ion channel inhibition (Fluxor potassium assay, CHO cells); format: cell-based; conditions: blockade of the K+ channel current at 10 μM
T2 construct: expressed in transfected cells; host or cells: CHO cell line
Experimental: CYP1A2 and CYP2C19, 7- methoxy- 4(trifluoromethyl)coumarin for CYP2C9, 3-[2-(N,N- diethyl -N-methylammonium)ethyl]-7- methoxy- 4- methylcoumarin for CYP2D6, and 7- benzyloxytrifluoromethylcoumarin for CYP3A4), to give the final assay concentrations in a reaction volume of 200 µL. Reactions were terminated after specific time for each cytochrome by addition of STOP solution (0.5 M 80:20 ACN/TrisHCl). […]
hERG ion channel inhibition. The assay was carried out using a CHO cell line transfected with the hERG potassium channel. C ells were seeded (2500 cells/well) 72 h before the assay on a 384-well black plate (Greiner 781091). Cell s were maintained at 37 °C in a 5% CO2 atmosphere for 24 h and at 30 °C in a 5% CO 2 atmosphere for 48 h. hERG activity was measured by using the FluxorTM Potassium Ion Chanel Assay Kit (Thermo Fisher F10016). Medium was replaced for 20 µL of loading buffer and cells were incubated for 60 min at 25 °C, protected from direct light. After incubation, l oading buffer was replaced for a ssay buffer and compounds were incubated for 30 min at 25 °C. After this time, 5 µL of stimulus buffer was added to each well and fluorescence was read (λ ex = 490 nm, λem = 525 nm) every second after the establishment of a baseline line using an imaging plate reader system (FDSS7000EX, Hamamatsu®). The fluorescent signal was […]

[4] = target: T3, CYP2D6 (Homo sapiens, UniProt P10635); assay: cytochrome inhibition, fluorescence assay, CYP2D6; format: in vitro ADME
T3 construct: host or cells: insect cell microsomes
Experimental: Cytochrome inhibition. The objective of this study was to screen the potential of test […]
performed using recombinant isoforms CYP1A2, CYP2C9, CYP2C19, CYP2D6, and CYP3A4, and probe substrates with fluorescent detection.
Assays were conducted in a 200 µL volume in 96-well microtiter plates (COSTAR 3915).
Addition of cofactor-buffer mixture (KH2PO4 buffer, 1.3 mM NADP, 3.3 mM MgCl2, 3.3 mM glucose -6- phosphate, and 0.4 U/mL glucose -6- phosphate dehydrogenase), supersomes control, standard inhibitors (furafyline, tranylzypromine, ketoconazole, sulfaphenazole, and quinidine from Sigma Aldrich) and test compound to the plate was carried out by a liquid handling station (Zephyr Caliper). The plate was then pre-incubated at 37 °C for 5 min, and the reaction was initiated by the addition of the pr e - warmed enzyme/substrate (E/S) mix. […]
Fluorescence per well was measured using a fluorescence plate reader (Tecan Infinite M1000 pro) and percentage of inhibition was calculated. hERG ion channel inhibition. […]

[5] = target: T4, human D1R (Homo sapiens, UniProt P21728); assay: potentiator-mode cAMP assay (HTRF) in SK-N-MC neuroblastoma cells endogenously expressing human D1R; format: cell-based; conditions: for potentiation of DA effect at different fixed concentrations: 3: 0.1–10 μM, 26: 1, 5 and 10 μM; for cAMP response in the absence of DA (agonist activity): no DA
T4 construct: endogenously expressed human D1R in the SK-N-MC cell line (ATCC); host or cells: SK-N-MC human neuroblastoma cells
T4 sequence (P21728 whole entry): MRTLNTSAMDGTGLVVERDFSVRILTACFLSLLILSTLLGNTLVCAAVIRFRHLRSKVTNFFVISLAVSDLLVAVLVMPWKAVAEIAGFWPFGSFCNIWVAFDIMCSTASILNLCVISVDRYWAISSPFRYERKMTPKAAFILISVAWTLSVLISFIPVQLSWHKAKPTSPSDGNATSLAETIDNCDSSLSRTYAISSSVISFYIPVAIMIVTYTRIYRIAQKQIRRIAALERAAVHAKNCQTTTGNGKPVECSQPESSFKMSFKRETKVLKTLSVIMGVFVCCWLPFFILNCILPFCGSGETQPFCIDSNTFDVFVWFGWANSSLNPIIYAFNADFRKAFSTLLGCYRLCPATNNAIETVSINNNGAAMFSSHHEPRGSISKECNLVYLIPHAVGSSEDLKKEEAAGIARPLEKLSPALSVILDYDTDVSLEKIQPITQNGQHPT

T3 sequence (P10635 whole entry): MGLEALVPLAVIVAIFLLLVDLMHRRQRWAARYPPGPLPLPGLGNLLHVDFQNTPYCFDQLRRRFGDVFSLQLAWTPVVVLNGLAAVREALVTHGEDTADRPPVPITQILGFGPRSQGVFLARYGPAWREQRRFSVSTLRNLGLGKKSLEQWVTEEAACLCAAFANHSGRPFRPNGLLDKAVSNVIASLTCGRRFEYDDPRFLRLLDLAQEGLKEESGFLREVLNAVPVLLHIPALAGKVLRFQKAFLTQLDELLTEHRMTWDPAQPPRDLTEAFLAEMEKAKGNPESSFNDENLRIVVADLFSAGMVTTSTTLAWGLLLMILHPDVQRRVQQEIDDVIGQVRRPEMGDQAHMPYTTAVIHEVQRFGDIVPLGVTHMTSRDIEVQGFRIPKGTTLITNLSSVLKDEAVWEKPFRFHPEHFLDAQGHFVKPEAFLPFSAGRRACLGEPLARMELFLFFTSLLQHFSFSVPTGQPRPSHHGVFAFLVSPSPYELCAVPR
T2 sequence (Q12809 whole entry): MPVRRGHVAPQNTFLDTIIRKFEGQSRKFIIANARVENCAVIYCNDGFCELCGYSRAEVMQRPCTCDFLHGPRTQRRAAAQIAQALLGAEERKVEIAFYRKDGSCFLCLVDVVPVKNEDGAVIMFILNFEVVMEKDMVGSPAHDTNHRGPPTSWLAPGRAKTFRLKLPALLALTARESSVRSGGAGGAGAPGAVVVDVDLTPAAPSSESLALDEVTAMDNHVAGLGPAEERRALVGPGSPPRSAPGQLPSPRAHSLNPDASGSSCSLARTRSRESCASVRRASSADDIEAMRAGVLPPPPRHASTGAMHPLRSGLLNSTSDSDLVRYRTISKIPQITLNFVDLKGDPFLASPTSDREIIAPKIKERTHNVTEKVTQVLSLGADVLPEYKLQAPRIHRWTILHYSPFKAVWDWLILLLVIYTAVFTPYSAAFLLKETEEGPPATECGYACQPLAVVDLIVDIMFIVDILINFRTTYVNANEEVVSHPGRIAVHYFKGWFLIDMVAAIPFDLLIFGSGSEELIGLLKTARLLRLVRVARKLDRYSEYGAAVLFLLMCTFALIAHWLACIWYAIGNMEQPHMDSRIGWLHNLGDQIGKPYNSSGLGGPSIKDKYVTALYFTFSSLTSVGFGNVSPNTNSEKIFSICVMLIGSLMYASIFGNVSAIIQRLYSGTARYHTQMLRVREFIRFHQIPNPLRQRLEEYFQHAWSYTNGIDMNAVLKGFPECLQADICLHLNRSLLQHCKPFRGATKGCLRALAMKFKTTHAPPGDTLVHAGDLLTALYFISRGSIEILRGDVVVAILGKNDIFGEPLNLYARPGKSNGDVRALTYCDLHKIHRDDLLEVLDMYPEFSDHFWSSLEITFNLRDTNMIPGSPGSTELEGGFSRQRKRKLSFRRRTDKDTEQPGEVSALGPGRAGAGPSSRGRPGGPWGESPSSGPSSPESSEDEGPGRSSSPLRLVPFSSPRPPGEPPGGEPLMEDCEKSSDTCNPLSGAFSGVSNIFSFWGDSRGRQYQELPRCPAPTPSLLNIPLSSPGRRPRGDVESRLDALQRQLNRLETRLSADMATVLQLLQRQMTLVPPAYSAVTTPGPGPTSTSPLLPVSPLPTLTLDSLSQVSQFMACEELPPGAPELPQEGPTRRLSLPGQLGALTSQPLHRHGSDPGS
T1 sequence (P21728 whole entry): as the sequence (P21728 whole entry) above

| Structure (SMILES) | Papp at 5 h, 200 μM [1] | displacement of the radioligand [3H]SCH-23390 ([2]; at 10 μM) | hERG inhibition (%) [3] | CYP2D6 (%) ([4]; Table S1, concentration not given) | potentiation of DA effect at different fixed concentrations [5] | cAMP response in the absence of DA (agonist activity) [5] | affinity ratio of [3H]SCH-23390 ([2]; in the presence of 4 μM DA) | CYP2D6 (%) ([4]; percentage of inhibition at 10 μM) | reversibility of the potentiation ([5]; 10 μM for 10 min then washing with assay buffer) | receptor desensitization ([5]; preincubation for 1 h with 10 μM compound) |
| --- | --- | --- | --- | --- | --- | --- | --- | --- | --- | --- |
| O=Cc1ccc(-c2ccccc2OCF)cc1 [Compound 3, 2′-(Fluoromethoxy)[1,1′-biphenyl]-4-carbaldehyde] | 20 ×10⁻⁶ cm/s | 12% | 11 ± 2% | inactive | concentration-dependent potentiation of DA effect | No cAMP response | – | – | – | – |
| CS(=N)(=O)c1ccc(-c2ccccc2OCF)cc1 (centres unmarked) [Compound 26, 2-(Fluoromethoxy)-4′-(S-methanesulfonimidoyl)-1,1′-biphenyl] | 24 ×10⁻⁶ cm/s | – | 21% | – | potentiation of the DA Emax in a concentration-dependent manner | no cAMP response | concentration-dependent increase of the affinity ratio values | 3% and 3 ± 1% | reversible effect | does not induce receptor desensitization |
